From patent US6896883B2 (priority 1997, dated 2005)

Tested on: F. graminearum
Type: in vivo
Conditions: wheat seeds in F. graminearum-infested soil, 7 days after planting

Structure (SMILES): c1ccc2[nH]c(-c3cscn3)nc2c1 [Thiabendazole, thiabendazole]
- % Germination: 80 a %
